Experimental data taken from patent publication US10196390B2, “TYK2 inhibitors and uses thereof” (Nimbus Lakshmi, Inc., priority 2014, dated 2019).
pEC50, pKi: −log10 of the molar value.

What was measured:
JAK2 = JAK2 (Homo sapiens (Human), UniProt O60674); test: JAK2 activity inhibition assay (radioactive kinase assay / Caliper assay); format: biochemical; details: read-out: JAK2 Ki
In short: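 Mobility-shift (Caliper) read-out of phosphorylated peptide substrate. Compound diluted in 25 mM HEPES pH 7.5, 0.01% Brij-35, 0.01% Triton, 0.5 mM EGTA; enzyme added, then peptide plus ATP in 10 mM MgCl2. Incubated 25 min at 28° C, stopped with EDTA buffer.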

TYK2 = TYK2 (Homo sapiens (Human), UniProt P29597); test: Tyk2 activity inhibition assay (radioactive kinase assay / Caliper assay); format: biochemical
Chain of TYK2 (P29597 whole entry): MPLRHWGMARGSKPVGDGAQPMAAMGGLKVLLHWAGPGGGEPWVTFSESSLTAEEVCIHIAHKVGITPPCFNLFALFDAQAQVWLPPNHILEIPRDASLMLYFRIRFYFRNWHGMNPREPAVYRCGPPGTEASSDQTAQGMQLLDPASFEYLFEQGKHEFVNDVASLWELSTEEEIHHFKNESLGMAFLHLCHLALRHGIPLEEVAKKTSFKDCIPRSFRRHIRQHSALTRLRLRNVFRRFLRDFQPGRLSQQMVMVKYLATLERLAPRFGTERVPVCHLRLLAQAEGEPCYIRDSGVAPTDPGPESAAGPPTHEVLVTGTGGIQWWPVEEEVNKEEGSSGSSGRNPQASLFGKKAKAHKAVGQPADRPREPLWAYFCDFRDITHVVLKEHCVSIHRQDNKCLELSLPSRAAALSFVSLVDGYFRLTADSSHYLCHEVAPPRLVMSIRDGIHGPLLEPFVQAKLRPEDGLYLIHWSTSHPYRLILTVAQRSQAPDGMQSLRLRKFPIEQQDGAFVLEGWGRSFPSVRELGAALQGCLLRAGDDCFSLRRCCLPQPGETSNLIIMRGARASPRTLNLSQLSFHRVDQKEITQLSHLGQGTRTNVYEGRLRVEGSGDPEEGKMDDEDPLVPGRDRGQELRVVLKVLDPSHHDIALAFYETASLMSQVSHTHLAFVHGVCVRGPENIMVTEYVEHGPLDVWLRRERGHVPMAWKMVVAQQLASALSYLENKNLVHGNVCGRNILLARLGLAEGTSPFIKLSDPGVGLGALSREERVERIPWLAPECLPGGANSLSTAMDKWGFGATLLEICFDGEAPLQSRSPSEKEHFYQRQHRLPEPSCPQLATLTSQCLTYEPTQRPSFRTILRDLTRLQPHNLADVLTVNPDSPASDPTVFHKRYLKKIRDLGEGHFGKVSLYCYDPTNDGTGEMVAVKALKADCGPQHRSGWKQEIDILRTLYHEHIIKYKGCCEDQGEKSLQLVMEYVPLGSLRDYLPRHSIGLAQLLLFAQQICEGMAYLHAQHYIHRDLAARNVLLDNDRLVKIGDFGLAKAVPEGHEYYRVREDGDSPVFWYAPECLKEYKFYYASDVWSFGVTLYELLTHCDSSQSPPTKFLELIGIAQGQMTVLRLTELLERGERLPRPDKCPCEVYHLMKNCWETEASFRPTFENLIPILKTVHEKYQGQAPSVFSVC
In short: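 Radiometric format: TYK2 with peptide substrate (20 μM) and 33P-ATP at 10 μM in HEPES pH 7.5, 1% DMSO, 120 min at room temp, P81 paper capture. Caliper mobility-shift format: TYK2 9.75 nM, peptide 30 at 3 uM, ATP 16 uM (also 1 mM), 25 min at 28° C.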

Tyk2-pSTAT4 = test: IL-12 induced pSTAT4 in human PBMC; format: cell-based; details: IL-12 induced pSTAT4, human PBMC; read-out: Tyk2-pSTAT4 EC50
Method: Human PBMC are isolated from buffy coat and are stored frozen for assays as needed. Cells for assay are thawed and resuspended in complete media containing serum, then cells are diluted to 1.67 E6 cells/ml so that 120 μl per well is 200,000 cells. 15 μl of compound or DMSO is added to the well at the desired concentrations and incubated at 1 hr at 37 C. 15 μl of stimulus (final concentration of 1.7 ng/mL IL-12) is added for 30 minutes prior to pSTAT4 and total STAT4 analysis using cell lysates prepared and analyzed by MSD reagents as per manufacturer protocol. The final DMSO concentration of compound in the assay is 0.1%.

Chain of JAK2 (O60674 whole entry): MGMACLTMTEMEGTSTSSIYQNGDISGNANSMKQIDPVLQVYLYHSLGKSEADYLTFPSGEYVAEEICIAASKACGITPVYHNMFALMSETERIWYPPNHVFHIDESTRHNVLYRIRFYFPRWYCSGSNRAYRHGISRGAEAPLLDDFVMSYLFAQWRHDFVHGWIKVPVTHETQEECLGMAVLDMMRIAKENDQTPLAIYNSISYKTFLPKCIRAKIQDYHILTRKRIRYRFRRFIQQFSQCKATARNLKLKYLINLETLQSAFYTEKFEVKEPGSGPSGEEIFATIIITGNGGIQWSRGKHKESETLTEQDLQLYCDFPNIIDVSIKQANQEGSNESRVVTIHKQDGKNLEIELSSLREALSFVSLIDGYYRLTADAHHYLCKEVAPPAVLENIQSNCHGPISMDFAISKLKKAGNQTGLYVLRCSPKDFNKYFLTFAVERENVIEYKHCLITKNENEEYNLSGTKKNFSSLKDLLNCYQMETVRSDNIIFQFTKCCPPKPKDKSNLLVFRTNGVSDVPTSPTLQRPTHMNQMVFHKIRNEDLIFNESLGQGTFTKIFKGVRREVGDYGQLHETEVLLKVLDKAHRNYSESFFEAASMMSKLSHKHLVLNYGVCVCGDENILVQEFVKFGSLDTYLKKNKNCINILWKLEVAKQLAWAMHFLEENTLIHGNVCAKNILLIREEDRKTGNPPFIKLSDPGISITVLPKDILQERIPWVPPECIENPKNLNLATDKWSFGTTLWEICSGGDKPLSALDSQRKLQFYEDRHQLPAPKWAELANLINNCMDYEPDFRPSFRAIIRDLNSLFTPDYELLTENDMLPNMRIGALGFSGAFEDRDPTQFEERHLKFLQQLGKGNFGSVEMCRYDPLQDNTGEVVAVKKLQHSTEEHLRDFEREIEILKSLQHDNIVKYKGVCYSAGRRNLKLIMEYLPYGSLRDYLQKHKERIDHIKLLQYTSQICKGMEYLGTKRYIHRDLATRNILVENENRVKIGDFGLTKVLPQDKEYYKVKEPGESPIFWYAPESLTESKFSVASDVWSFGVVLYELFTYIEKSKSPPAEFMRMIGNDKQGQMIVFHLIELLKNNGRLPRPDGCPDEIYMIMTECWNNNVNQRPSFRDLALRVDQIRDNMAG

pKi (JAK2) | pKi (TYK2) | pEC50 (Tyk2-pSTAT4) | Compound
> 8.00 | > 8.00 | > 5.70 | O=C1NCc2nc(-c3c(F)cccc3F)cc(Nc3ccc(N4CC5(COC5)C4)cn3)c21 [Compound I-144, 4-((5-(2-oxa-6-azaspiro[3.3]heptan-6-yl)pyridin-2-yl)amino)-2-(2,6-difluorophenyl)-6,7-dihydro-5H-pyrrolo[3,4-b]pyridin-5-one]
6.00 to 7.00 | > 8.00 |  | COC(=O)C1COCCN1C(=O)Cc1ccc(Nc2nc(-c3c(F)cccc3F)nc3c2C(=O)NC3)cc1 (stereo not drawn) [Compound I-201, methyl 4-(2-(4-((2-(2,6-difluorophenyl)-5-oxo-6,7-dihydro-5H-pyrrolo[3,4-d]pyrimidin-4-yl)amino)phenyl)acetyl)morpholine-3-carboxylate]
6.00 to 7.00 | 7.00 to 8.00 |  | C=C(C(=O)NCC)c1ccc(Nc2nc(-c3c(F)cccc3F)nc3c2C(=O)NC3)cc1 [Compound I-203, 2-(4-((2-(2,6-difluorophenyl)-5-oxo-6,7-dihydro-5H-pyrrolo[3,4-d]pyrimidin-4-yl)amino)phenyl)-N-ethylacrylamide]
< 6.00 | > 8.00 |  | O=C1NCc2nc(-c3c(F)cccc3Cl)cc(Nc3ccc(N4CCCC4)cn3)c21 [Compound I-204, 2-(2-chloro-6-fluorophenyl)-4-((5-(pyrrolidin-1-yl)pyridin-2-yl)amino)-6,7-dihydro-5H-pyrrolo[3,4-b]pyridin-5-one]
7.00 to 8.00 | > 8.00 |  | CN1CCN(C)[C@@](C)(c2ccc(Nc3nc(-c4c(F)cccc4F)nc4c3C(=O)NC4)cc2)C1=O [Compound I-211, (S)-2-(2,6-difluorophenyl)-4-((4-(1,2,4-trimethyl-3-oxopiperazin-2-yl)phenyl)amino)-6,7-dihydro-5H-pyrrolo[3,4-d]pyrimidin-5-one]
6.00 to 7.00 | > 8.00 |  | CC1(C)CC(c2ccc(Nc3nc(-c4c(F)cccc4F)nc4c3C(=O)NC4)cc2)C(=O)N1 (stereo not drawn) [Compound I-213, 2-(2,6-difluorophenyl)-4-((4-(5,5-dimethyl-2-oxopyrrolidin-3-yl)phenyl)amino)-6,7-dihydro-5H-pyrrolo[3,4-d]pyrimidin-5-one]
7.00 to 8.00 | > 8.00 |  | CN1CCNC(C)(c2ccc(Nc3nc(-c4c(F)cccc4F)nc4c3C(=O)NC4)cc2)C1=O (stereo not drawn) [Compound I-215, 2-(2,6-difluorophenyl)-4-((4-(2,4-dimethyl-3-oxopiperazin-2-yl)phenyl)amino)-6,7-dihydro-5H-pyrrolo[3,4-d]pyrimidin-5-one]
6.00 to 7.00 | > 8.00 |  | CN1CCN[C@](C)(c2ccc(Nc3nc(-c4c(F)cccc4F)nc4c3C(=O)NC4)cc2)C1=O [Compound I-216, (R)-2-(2,6-difluorophenyl)-4-((4-(2,4-dimethyl-3-oxopiperazin-2-yl)phenyl)amino)-6,7-dihydro-5H-pyrrolo[3,4-d]pyrimidin-5-one]
7.00 to 8.00 | > 8.00 |  | CN1CCN[C@@](C)(c2ccc(Nc3nc(-c4c(F)cccc4F)nc4c3C(=O)NC4)cc2)C1=O [Compound I-217, (S)-2-(2,6-difluorophenyl)-4-((4-(2,4-dimethyl-3-oxopiperazin-2-yl)phenyl)amino)-6,7-dihydro-5H-pyrrolo[3,4-d]pyrimidin-5-one]
> 8.00 | > 8.00 |  | CN1CCNC(C)(c2ccc(Nc3cc(-c4c(F)cccc4F)nc4c3C(=O)NC4)nc2)C1=O (stereo not drawn) [Compound I-223, 2-(2,6-difluorophenyl)-4-((5-(2,4-dimethyl-3-oxopiperazin-2-yl)pyridin-2-yl)amino)-6,7-dihydro-5H-pyrrolo[3,4-b]pyridin-5-one]
> 8.00 | > 8.00 |  | CN1CCN[C@](C)(c2ccc(Nc3cc(-c4c(F)cccc4F)nc4c3C(=O)NC4)nc2)C1=O [Compound I-224, (R)-2-(2,6-difluorophenyl)-4-((5-(2,4-dimethyl-3-oxopiperazin-2-yl)pyridin-2-yl)amino)-6,7-dihydro-5H-pyrrolo[3,4-b]pyridin-5-one]
> 8.00 | > 8.00 |  | CN1CCN[C@@](C)(c2ccc(Nc3cc(-c4c(F)cccc4F)nc4c3C(=O)NC4)nc2)C1=O [Compound I-225, (S)-2-(2,6-difluorophenyl)-4-((5-(2,4-dimethyl-3-oxopiperazin-2-yl)pyridin-2-yl)amino)-6,7-dihydro-5H-pyrrolo[3,4-b]pyridin-5-one]
7.00 to 8.00 | > 8.00 |  | O=C(NCC1CC1)c1ccc(Nc2cc(-c3c(F)cccc3F)nc3c2C(=O)NC3)nc1 [Compound I-226, N-(cyclopropylmethyl)-6-((2-(2,6-difluorophenyl)-5-oxo-6,7-dihydro-5H-pyrrolo[3,4-b]pyridin-4-yl)amino)nicotinamide]
6.00 to 7.00 | 7.00 to 8.00 |  | NC(=O)c1cc(F)c(-c2cc(Nc3ccc(N4CCOCC4)cn3)c3c(n2)CNC3=O)c(F)c1 [Compound I-250, 3,5-difluoro-4-(4-((5-morpholinopyridin-2-yl)amino)-5-oxo-6,7-dihydro-5H-pyrrolo[3,4-b]pyridin-2-yl)benzamide]
7.00 to 8.00 | > 8.00 |  | CC1(C)CN(c2ccc(Nc3cc(-c4c(F)cccc4F)nc4c3C(=O)NC4)nc2)CC[C@H]1O [Compound I-268, (R)-2-(2,6-difluorophenyl)-4-((5-(4-hydroxy-3,3-dimethyl-piperidin-1-yl)pyridin-2-yl)amino)-6,7-dihydro-5H-pyrrolo[3,4-b]pyridin-5-one]
6.00 to 7.00 | 7.00 to 8.00 |  | O=C1NCc2nc(-c3c(F)cccc3F)cc(Nc3ccc(C(=O)N4CCOCC4)nc3)c21 [Compound I-280, 2-(2,6-difluorophenyl)-4-((6-(morpholine-4-carbonyl)pyridin-3-yl)amino)-6,7-dihydro-5H-pyrrolo[3,4-b]pyridin-5-one]
> 8.00 | > 8.00 |  | N#Cc1cccc(F)c1-c1cc(Nc2ccc(N3CCOCC3)cn2)c2c(n1)CNC2=O [Compound I-281, 3-fluoro-2-(4-((5-morpholinopyridin-2-yl)amino)-5-oxo-6,7-dihydro-5H-pyrrolo[3,4-b]pyridin-2-yl)benzonitrile]

Compound | pKi (JAK2) | pKi (TYK2) | pEC50 (Tyk2-pSTAT4)
O=C1NCc2nc(-c3c(F)cccc3F)nc(Nc3ccc(CC(=O)N4CCOCC4C(=O)O)cc3)c21 (stereo not drawn) [Compound I-202, 4-(2-(4-((2-(2,6-difluorophenyl)-5-oxo-6,7-dihydro-5H-pyrrolo-[3,4-d]pyrimidin-4-yl)amino)phenyl)acetyl)morpholine-3-carboxylic Acid] | 6.00 to 7.00 | > 8.00 | 
CCNC(=O)Cc1ccc(Nc2nc(-c3c(F)cncc3F)nc3c2C(=O)NC3)cc1 [Compound I-208, 2-(4-((2-(3,5-difluoropyridin-4-yl)-5-oxo-6,7-dihydro-5H-pyrrolo[3,4-d]pyrimidin-4-yl)amino)phenyl)-N-ethylacetamide] | < 6.00 | 6.00 to 7.00 | 
CC1(C)C[C@@H](c2ccc(Nc3nc(-c4c(F)cccc4F)nc4c3C(=O)NC4)cc2)C(=O)N1 [Compound I-218, (S)-2-(2,6-difluorophenyl)-4-((4-(5,5-dimethyl-2-oxopyrrolidin-3-yl)phenyl)amino)-6,7-dihydro-5H-pyrrolo[3,4-d]pyrimidin-5-one] | 6.00 to 7.00 | > 8.00 | 
CC1(C)C[C@H](c2ccc(Nc3nc(-c4c(F)cccc4F)nc4c3C(=O)NC4)cc2)C(=O)N1 [Compound I-219, (R)-2-(2,6-difluorophenyl)-4-((4-(5,5-dimethyl-2-oxopyrrolidin-3-yl)phenyl)amino)-6,7-dihydro-5H-pyrrolo[3,4-d]pyrimidin-5-one] | 7.00 to 8.00 | > 8.00 | 
CN1C(=O)C(C)(c2ccc(Nc3nc(-c4c(F)cccc4F)nc4c3C(=O)NC4)cc2)CC1(C)C (stereo not drawn) [Compound I-220, 2-(2,6-difluorophenyl)-4-((4-(1,3,5,5-tetramethyl-2-oxo-pyrrolidin-3-yl)phenyl)amino)-6,7-dihydro-5H-pyrrolo[3,4-d]pyrimidin-5-one] | 7.00 to 8.00 | > 8.00 | 
CN1C(=O)[C@](C)(c2ccc(Nc3nc(-c4c(F)cccc4F)nc4c3C(=O)NC4)cc2)CC1(C)C [Compound I-221, (S)-2-(2,6-difluorophenyl)-4-((4-(1,3,5,5-tetramethyl-2-oxopyrrolidin-3-yl)phenyl)amino)-6,7-dihydro-5H-pyrrolo[3,4-d]pyrimidin-5-one] | 7.00 to 8.00 | > 8.00 | 
CN1C(=O)[C@@](C)(c2ccc(Nc3nc(-c4c(F)cccc4F)nc4c3C(=O)NC4)cc2)CC1(C)C [Compound I-222, (R)-2-(2,6-difluorophenyl)-4-((4-(1,3,5,5-tetramethyl-2-oxopyrrolidin-3-yl)phenyl)amino)-6,7-dihydro-5H-pyrrolo[3,4-d]pyrimidin-5-one] | 7.00 to 8.00 | > 8.00 | 
COc1ccc(Nc2cc(-c3c(F)cccc3F)nc3c2C(=O)NC3)cc1 [Compound I-230, 2-(2,6-difluorophenyl)-4-((4-methoxyphenyl)amino)-6,7-dihydro-5H-pyrrolo[3,4-b]pyridin-5-one] | 6.00 to 7.00 | > 8.00 | 
